Assay results published in US7094581B2, “Hyaluronan synthases and methods of making and using same” (The Board of Regents of the University of Oklahoma, priority 1998, dated 2006).
Read-outs that look alike come from different tables or passages of the source.

Tests used:
seHAS [1] = assay: Effect of sulfhydryl reagents on seHAS activity in E. coli membranes; format: biochemical, Streptococcus equisimilis; conditions: E. coli membranes with seHAS-H6, 4° C. 1 h, 5 mM NEM, 5 mM IAA, 0.5 mM 5,5′-dithiobis-(2-nitrobenzoic acid), 0.05 mM methylmethanethiosulfonate, 10 mM sodium arsenite
Protocol: (§1) SeHAS is the smallest HAS protein (417 amino acids) and contains four Cys residues. […] To explore the possible role of cysteines in the function of HAS, the activities of seHAS and spHAS were assayed in the presence of different sulfhydryl reagents (Table II). […] The inhibition of each HAS by NEM was examined in more detail with respect to time of incubation and NEM concentration (FIG. 2).
(§2) E. coli SURE cells transformed with plasmids containing various seHAS mutants were grown in LB medium with vigorous shaking at 32° C. to A600 ˜0.8 and induced with 1 mM isopropyl-β-thiogalactoside for 3 h. Cells were harvested and membranes were prepared as described previously. The kinetic constants for HAS were determined at 37° C. in 100 μl of 50 mM sodium and potassium phosphate, pH 7.0, with 20 mM MgCl2, 1 mM DTE, 240 μM UDP-GIcUA, 0.7 μM UDP-[^14C]GIcUA and 0.6–1.0 mM UDP-GIcNAc. in 100 μl of 25 mM sodium and potassium phosphate, pH 7, containing 50 mM NaCl, 20 mM MgCl2, 1 mM dithiothreitol, 1 mM UDP-GIcUA, 0.68 μM UDP-GIcUA and 1 mM UDP-GIcNAc. Some assays also contained 0.1 mM EDTA and 20% glycerol (v/v). To initiate the enzyme reaction, ˜0.5–40 μg of membrane protein was added and the mixtures were gently shaken in a MicroMixer X-36 (Tiatec) at 30° C. for 1–2 h. Reactions were terminated by the addition of SDS to a final concentration of 2% (w/v). The incorporation of radioactive [^14C]GIcUA was determined by descending paper chromatography and the Km and Vmax values were determined as described by Tlapak-Simmons et al (1999b). Data were analyzed by the methods of Michaelis-Menton or Hill. Protein content was determined by the method of Bradford using bovine serum albumin as the standard. All Cys-mutant or sulfhydryl-treated seHAS samples were assayed in duplicate or triplicate using two or three independent membrane preparations. […] All enzyme assays were performed under conditions that were linear with respect to time and protein concentration.
(§3) Stock solutions (10–100 mM) of NEM, IAA or other sulfhydryl reagents were made in PBS, pH 7.0. Suspensions of membranes containing seHAS or spHAS were incubated with 0–5 mM of the sulfhydryl reagent at 4° C. and the reactions were stopped by adding DTE to a final concentration of 10 mM. The membranes were then assayed for HAS activity as described above.

spHAS [2] = molecular target: T1, spHAS (Streptococcus pyogenes serotype M6, UniProt Q5X9A9); assay: Effect of sulfhydryl reagents on spHAS activity in E. coli membranes; format: biochemical; conditions: for Inhibition of HAS Activity (% relative to control), spHAS: E. coli membranes with spHAS-H6, 4° C. 1 h, 5 mM NEM, 5 mM IAA, 0.5 mM 5,5′-dithiobis-(2-nitrobenzoic acid), 0.05 mM methylmethanethiosulfonate, 10 mM sodium arsenite
T1 construct: made in house; host or cells: E. coli SURE cells (isolated membranes)
T1 sequence (Q5X9A9 1-419): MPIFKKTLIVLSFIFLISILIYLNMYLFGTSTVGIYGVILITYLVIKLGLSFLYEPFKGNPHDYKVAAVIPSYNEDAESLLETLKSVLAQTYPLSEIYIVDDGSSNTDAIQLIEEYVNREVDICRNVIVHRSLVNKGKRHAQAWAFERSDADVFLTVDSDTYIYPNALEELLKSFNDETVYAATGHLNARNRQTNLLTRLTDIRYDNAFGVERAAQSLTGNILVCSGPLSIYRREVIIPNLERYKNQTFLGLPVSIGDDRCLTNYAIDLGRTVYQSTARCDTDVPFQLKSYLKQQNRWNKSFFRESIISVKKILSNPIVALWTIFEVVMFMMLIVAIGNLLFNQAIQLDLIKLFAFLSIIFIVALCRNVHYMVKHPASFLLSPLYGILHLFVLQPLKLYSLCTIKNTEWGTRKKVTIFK
Protocol: as §1, §2, §3

wild-type seHAS = assay: Utilization of UDP-GlcUA and UDP-GlcNAc by wild-type seHAS after NEM or sodium arsenite treatment; format: biochemical, Streptococcus equisimilis; conditions: membranes 4° C. 1 h with 5 mM NEM or 10 mM sodium arsenite
Protocol: FIG. 3. Effect of NEM or sodium arsenite treatment on the utilization of UDP-GIcUA and UDP-GIcNAc by wild-type seHAS. E. coli membranes containing seHAS protein were incubated at 4° C. for 1 h in PBS containing 5 mM NEM or 10 mM Sodium Arsenite (SodArs), and the control membranes were incubated with PBS alone. Michaelis-Menten constants (Km) were calculated from the activities of seHAS at varying concentrations of UDP-GIcUA or UDP-GIcNAc.
Modification of the protein by NEM could affect any one or several of the six discrete functions that HAS must perform in order to synthesize HA. In order to determine if one of the nucleotide-sugar binding sites was affected by NEM, we examined the UDP-GIcUA and UDP-GIcNAc saturation profiles for treated and untreated seHAS (FIG. 3 and Table III).
E. coli SURE cells transformed with plasmids containing various seHAS mutants were grown in LB medium with vigorous shaking at 32° C. to A600 ˜0.8 and induced with 1 mM isopropyl-β-thiogalactoside for 3 h. Cells were harvested and membranes were prepared as described previously. The kinetic constants for HAS were determined at 37° C. in 100 μl of 50 mM sodium and potassium phosphate, pH 7.0, with 20 mM MgCl2, 1 mM DTE, 240 μM UDP-GIcUA, 0.7 μM UDP-[^14C]GIcUA and 0.6–1.0 mM UDP-GIcNAc. in 100 μl of 25 mM sodium and potassium phosphate, pH 7, containing 50 mM NaCl, 20 mM MgCl2, 1 mM dithiothreitol, 1 mM UDP-GIcUA, 0.68 μM UDP-GIcUA and 1 mM UDP-GIcNAc. Some assays also contained 0.1 mM EDTA and 20% glycerol (v/v). To initiate the enzyme reaction, ˜0.5–40 μg of membrane protein was added and the mixtures were gently shaken in a MicroMixer X-36 (Tiatec) at 30° C. for 1–2 h. Reactions were terminated by the addition of SDS to a final concentration of 2% (w/v). The incorporation of radioactive [^14C]GIcUA was determined by descending paper chromatography and the Km and Vmax values were determined as described by Tlapak-Simmons et al (1999b). Data were analyzed by the methods of Michaelis-Menton or Hill. Protein content was determined by the method of Bradford using bovine serum albumin as the standard. All Cys-mutant or sulfhydryl-treated seHAS samples were assayed in duplicate or triplicate using two or three independent membrane preparations. Results are presented as the mean±standard errors. All enzyme assays were performed under conditions that were linear with respect to time and protein concentration. None of the seHAS variant enzymes were unstable under the conditions employed.

spHAS [3] = assay: Kinetic analysis of Cys-mutants of spHAS, normalized to spHAS protein; format: biochemical, Streptococcus pyogenes; parameters: Vmax: unit not given here
Protocol: Kinetic analyses of the single and multiple spHAS Cys-mutants were performed to investigate the possibility that multiple Cys residues are critical in a coordinated way for enzyme activity. […] The spHAS(C225S) and spHAS(C280A) mutants had the most reduced activities with Vmax values at 30–50% of wildtype. The spHAS(C261,280A) and Cys-null mutant had 50–75% of the wildtype activity.
Membranes were isolated from E. coli SURE strains expressing mutant or wildtype spHAS, fractionated by SDS-PAGE according to the procedure of Laemmli (1970) and the proteins were electrotransferred to nitrocellulose as described by Towbin et al. (1979) with minor modifications (Tlapak-Simmons, et al., 1998). Western analysis was performed by incubating these blots for 1 h at room temperature with a biotinylated anti-His5 monoclonal antibody, as the primary antibody, then washing and incubating with 3 μg/ml ^125I-streptavidin, prepared as described hereinabove. After 1 h at room temperature, the blots were washed, dried and exposed to a Phosphoscreen for 1 to 72 h. The screens were analyzed using a Molecular Dynamics Phosphoimager and integrated density values were obtained for each spHAS band. Integrated density values were also obtained for increasing amounts of affinity-purified spHAS (Tlapak-Simmons et al., 1999a), which was used as an internal standard in the same blot to generate a standard curve. Dilutions of membrane samples were made as necessary to ensure that all estimates of HAS quantity were in the linear range of the assay. Those membrane samples giving a linear response with increasing protein were then compared to the standard curve to calculate the amount of spHAS present per μl membrane suspension. These values were then used to normalize the kinetic results obtained using membranes from the various spHAS mutants.
E. coli SURE cells, previously transformed with plasmids containing wildtype or mutant spHAS genes, were grown to an A600 of ˜1.2 and induced with 1 mM isopropyl thio-β-D-galactoside for three h. Cells were harvested and membranes were prepared as described previously (Tlapak-Simmons, et al., 1999a). The activities of mutant spHAS variants were assessed by measuring their Vmax and Km values in isolated membranes, normalized as described above for the amount of enzyme expressed. The Km values were determined using a descending paper chromatography assay (Tlapak-Simmons, et al., 1999b), holding one UDP-sugar substrate constant and varying the other from 0.01 to 4 mM. Data were analyzed by linear regression using Haynes-Wolf plots for UDP-GIcUA or Hill plots for UDP-GIcNAc.

seHAS [4] = format: biochemical, Streptococcus equisimilis; conditions: for Hill number: seHAS variants, UDP-GlcNAc utilization
Protocol: as §2

## O=C(O)c1cc(SSc2ccc([N+](=O)[O-])c(C(=O)O)c2)ccc1[N+](=O)[O-] [5,5′-dithiobis-(2-nitrobenzoic acid)]
seHAS [1]
  Inhibition of HAS Activity (% relative to control), seHAS: 52 ± 6.5%
spHAS [2]
  Inhibition of HAS Activity (% relative to control), spHAS: 52 ± 4.9%

## O=C(O)CI [Iodacetic acid]
seHAS [1]
  Inhibition of HAS Activity (% relative to control), seHAS: 15%
spHAS [2]
  Inhibition of HAS Activity (% relative to control), spHAS: 13 ± 5.4%

## CSS(C)(=O)=O [Methylmethanethiosulfonate]
seHAS [1]
  Inhibition of HAS Activity (% relative to control), seHAS: 93 ± 5.4%
seHAS [1]; listed as methylmethanethiosulfonate
  Inhibition of HAS Activity (% relative to control), seHAS: > 93%
spHAS [2]
  Inhibition of HAS Activity (% relative to control), spHAS: 89 ± 5.5%

## O=[As]O [Sodium Arsenite]
seHAS [1]
  Inhibition of HAS Activity (% relative to control), seHAS: 40 ± 4.0%
spHAS [2]; read-out: Inhibition of HAS Activity (% relative to control), spHAS
  inhibition at 10000 µM: 46 ± 5.1%
wild-type seHAS
  Vmax of treated wild-type seHAS, UDP-GlcNAc: 9.5 ± 1.1 nmol/µg/h
  Vmax of treated wild-type seHAS, UDP-GlcUA: 9.5 ± 1.1 nmol/µg/h
wild-type seHAS; read-out: Km for UDP-GlcNAc of treated wild-type seHAS
  Km: 112 ± 38 µM
wild-type seHAS; read-out: Km for UDP-GlcUA of treated wild-type seHAS
  Km: 67 ± 23 µM

B1: Wildtype: wildtype Streptococcus pyogenes hyaluronan synthase (spHAS-His6), SEQ ID NO:4 (protein)
chain: MPIFKKTLIVLSFIFLISILIYLNMYLFGTSTVGIYGVILITYLVIKLGLSFLYEPFKGNPHDYKVAAVIPSYNEDAESLLETLKSVLAQTYPLSEIYIVDDGSSNTDAIQLIEEYVNREVDICRNVIVHRSLVNKGKRHAQAWAFERSDADVFLTVDSDTYIYPNALEELLKSFNDETVYAATGHLNARNRQTNLLTRLTDIRYDNAFGVERAAQSLTGNILVCSGPLSIYRREVIIPNLERYKNQTFLGLPVSIGDDRCLTNYAIDLGRTVYQSTARCDTDVPFQLKSYLKQQNRWNKSFFRESIISVKKILSNPIVALWTIFEVVMFMMLIVAIGNLLFNQAIQLDLIKLFAFLSIIFIVALCRNVHYMVKHPASFLLSPLYGILHLFVLQPLKLYSLCTIKNTEWGTRKKVTIFK
modifications: His6 tag; Streptococcus pyogenes
spHAS [3]; UDP-GlcNAc utilization
  Hill number: 1.8 ± 0.1
spHAS [3]; at 0.5 mM UDP-GlcUA, read-out: Km UDP-GlcNAc
  Km: 398 ± 112 µM
spHAS [3]; at 1.5 mM UDP-GlcNAc, read-out: Km UDP-GlcUA
  Km: 50.4 ± 10.8 µM
spHAS [3]; both substrates incorporated per hour per pmol spHAS
  Vmax: 791 ± 215

B2: WT: wild-type Streptococcus equisimilis hyaluronan synthase (seHAS-His6), SEQ ID NO:2 (protein, listed as Streptococcus equisimilis)
chain: MRTLKNLITVVAFSIFWVLLIYVNVYLFGAKGSLSIYGFLLIAYLLVKMSLSFFYKPFKGRAGQYKVAAIIPSYNEDAESLLETLKSVQQQTYPLAEIYVVDDGSADETGIKRIEDYVRDTGDLSSNVIVHRSEKNQGKRHAQAWAFERSDADVFLTVDSDTYIYPDALEELLKTFNDPTVFAATGHLNVRNRQTNLLTRLTDIRYDNAFGVERAAQSVTGNILVCSGPLSVYRREVVVPNIDRYINQTFLGIPVSIGDDRCLTNYATDLGKTVYQSTAKCITDVPDKMSTYLKQQNRWNKSFFRESIISVKKIMNNPFVALWTILEVSMFMMLVYSVVDFFVGNVREFDWLRVLAFLVIIFIVALCRNIHYMLKHPLSFLLSPFYGVLHLFVLQPLKLYSLFTIRNADWGTRKKLL
modifications: His6 tag
seHAS [4]; seHAS variants in membranes from E. coli SURE cells
  Vmax: 5.60 ± 0.48 nmol/pmol/h
seHAS [4]; seHAS variants in membranes from E. coli SURE cells, read-out: Km for UDPGlcNAc
  Km: 74 ± 7 µM
seHAS [4]; seHAS variants in membranes from E. coli SURE cells, read-out: Km for UDPGlcUA
  Km: 77 ± 5 µM
seHAS [4]
  Hill number: 1.1 ± 0.1
seHAS [4]; listed as wild-type
  Hill number: 1.0
